According to PMC11801377, “A uniquely efficacious type of CFTR corrector with complementary mode of action” (Science Advances, 2024):

Key:
Format in all cases: cell-based
[1] = target: T1, WT-CFTR (Homo sapiens, UniProt P13569); experiment: YFP quenching assay in CFBE-WT-CFTR-YFP cells
T1 construct: host or cells: CFBE41o-

[2] = target: T2, R560T CFTR (Homo sapiens, UniProt P13569, R560T); experiment: CFTR correction (immunoblotting), HEK-TREx, R560T; details: 48 hours, IDOR-3 2 μM, IDOR-4 0.4 μM, TEZ 2 μM + ELX 0.4 μM
T2 construct: expressed in transfected cells; host or cells: T-REx HEK293
T2 sequence (P13569 whole entry R560T): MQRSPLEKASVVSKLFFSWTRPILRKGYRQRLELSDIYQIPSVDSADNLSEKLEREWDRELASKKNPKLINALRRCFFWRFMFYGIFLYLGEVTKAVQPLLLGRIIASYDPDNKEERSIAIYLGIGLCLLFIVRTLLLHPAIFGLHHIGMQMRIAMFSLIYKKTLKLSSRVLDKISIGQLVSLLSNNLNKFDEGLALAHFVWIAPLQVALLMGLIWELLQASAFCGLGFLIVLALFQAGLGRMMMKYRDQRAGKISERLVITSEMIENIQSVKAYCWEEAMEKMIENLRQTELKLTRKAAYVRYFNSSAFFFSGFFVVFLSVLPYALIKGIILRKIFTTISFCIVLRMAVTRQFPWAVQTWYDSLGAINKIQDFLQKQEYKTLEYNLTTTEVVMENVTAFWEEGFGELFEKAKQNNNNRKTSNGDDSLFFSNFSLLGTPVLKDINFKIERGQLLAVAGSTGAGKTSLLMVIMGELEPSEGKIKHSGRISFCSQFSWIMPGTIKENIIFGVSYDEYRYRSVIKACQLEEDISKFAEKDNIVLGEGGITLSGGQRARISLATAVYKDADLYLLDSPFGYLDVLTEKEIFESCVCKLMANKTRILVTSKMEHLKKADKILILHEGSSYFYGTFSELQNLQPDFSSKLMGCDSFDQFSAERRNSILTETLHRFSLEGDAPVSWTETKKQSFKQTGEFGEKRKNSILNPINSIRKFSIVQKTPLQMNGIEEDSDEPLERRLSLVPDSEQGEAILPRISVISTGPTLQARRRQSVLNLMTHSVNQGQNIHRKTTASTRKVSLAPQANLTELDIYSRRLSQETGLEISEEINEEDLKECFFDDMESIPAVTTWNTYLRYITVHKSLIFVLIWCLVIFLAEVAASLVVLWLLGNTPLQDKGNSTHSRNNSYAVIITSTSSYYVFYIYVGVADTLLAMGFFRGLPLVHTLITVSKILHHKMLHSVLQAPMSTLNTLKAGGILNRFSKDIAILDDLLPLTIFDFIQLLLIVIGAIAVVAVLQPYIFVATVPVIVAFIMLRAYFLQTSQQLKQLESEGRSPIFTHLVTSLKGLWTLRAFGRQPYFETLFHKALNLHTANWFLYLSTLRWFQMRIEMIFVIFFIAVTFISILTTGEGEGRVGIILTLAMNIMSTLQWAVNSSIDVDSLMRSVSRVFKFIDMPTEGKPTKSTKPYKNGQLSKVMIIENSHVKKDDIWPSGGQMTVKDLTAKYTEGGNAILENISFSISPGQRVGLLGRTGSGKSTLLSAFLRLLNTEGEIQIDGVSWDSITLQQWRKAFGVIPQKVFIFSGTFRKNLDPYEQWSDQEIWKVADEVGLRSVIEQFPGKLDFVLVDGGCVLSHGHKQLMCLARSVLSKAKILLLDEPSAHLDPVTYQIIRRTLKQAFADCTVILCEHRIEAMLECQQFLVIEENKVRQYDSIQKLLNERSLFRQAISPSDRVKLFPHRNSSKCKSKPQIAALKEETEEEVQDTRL
Text: (§1) The human CFTR expressing HEK cell pools with the mutations described below were generated by integrase-mediated homologous recombination of the CFTR sequence into the T-REx HEK293 background (Thermo Fisher Scientific). This expression system allows the tetracycline-inducible expression of genes of interest from one defined insertion site. Parental T-REx-HEK293 cells were cultivated in growth medium: Dulbecco’s modified Eagle’s medium + GlutaMAX-I (#31966, Life Technologies), 10% dialyzed FBS (Gibco, #26400), penicillin (100 U/ml), streptomycin (100 μg/ml), hygromycin B (0.1 mg/ml; Life Technologies), blasticidin (5 μg/ml; Invitrogen, #R210-01), and 0.1 mM nonessential amino acid solution (Invitrogen, #11140-035). Recombinant T-REx-HEK-CFTR cells were generated by lipofectamine transfection (Life Technologies) of plasmids containing mutated versions of CFTR (RefSeq NM_000492) and then cultivated in selection medium [growth medium containing Geneticin (1 mg/ml) (Invitrogen, #10131-027) instead of hygromycin]. The plasmid constructs were synthetized by GENEART (Thermo Fisher Scientific) and designed with the WT CFTR intron 5 to 6 (880 nucleotides) to prevent leaky expression issues during the cloning process in bacteria. […]

[3] = target: T3, M1101K CFTR (Homo sapiens, UniProt P13569, M1101K); experiment: CFTR correction (immunoblotting), HEK-TREx, M1101K; details: 48 hours, IDOR-3 2 μM, IDOR-4 0.4 μM, TEZ 2 μM + ELX 0.4 μM
T3 construct: expressed in transfected cells; host or cells: T-REx HEK293
T3 sequence (P13569 whole entry M1101K): as the sequence (P13569 whole entry R560T) above, with T560R, M1101K counted along it
Text: as §1

[4] = target: F508del-CFTR (Homo sapiens, UniProt P13569, DEL508-508); experiment: CFTR immunoblotting in HEK-TREx cells expressing F508del-CFTR; set-up: expressed in transfected cells; host or cells: T-REx HEK293; details: 48 hours, IDOR-3 2 μM, IDOR-4 0.4 μM
Sequence of F508del-CFTR (P13569 with tags, fused parts or gaps DEL508-508): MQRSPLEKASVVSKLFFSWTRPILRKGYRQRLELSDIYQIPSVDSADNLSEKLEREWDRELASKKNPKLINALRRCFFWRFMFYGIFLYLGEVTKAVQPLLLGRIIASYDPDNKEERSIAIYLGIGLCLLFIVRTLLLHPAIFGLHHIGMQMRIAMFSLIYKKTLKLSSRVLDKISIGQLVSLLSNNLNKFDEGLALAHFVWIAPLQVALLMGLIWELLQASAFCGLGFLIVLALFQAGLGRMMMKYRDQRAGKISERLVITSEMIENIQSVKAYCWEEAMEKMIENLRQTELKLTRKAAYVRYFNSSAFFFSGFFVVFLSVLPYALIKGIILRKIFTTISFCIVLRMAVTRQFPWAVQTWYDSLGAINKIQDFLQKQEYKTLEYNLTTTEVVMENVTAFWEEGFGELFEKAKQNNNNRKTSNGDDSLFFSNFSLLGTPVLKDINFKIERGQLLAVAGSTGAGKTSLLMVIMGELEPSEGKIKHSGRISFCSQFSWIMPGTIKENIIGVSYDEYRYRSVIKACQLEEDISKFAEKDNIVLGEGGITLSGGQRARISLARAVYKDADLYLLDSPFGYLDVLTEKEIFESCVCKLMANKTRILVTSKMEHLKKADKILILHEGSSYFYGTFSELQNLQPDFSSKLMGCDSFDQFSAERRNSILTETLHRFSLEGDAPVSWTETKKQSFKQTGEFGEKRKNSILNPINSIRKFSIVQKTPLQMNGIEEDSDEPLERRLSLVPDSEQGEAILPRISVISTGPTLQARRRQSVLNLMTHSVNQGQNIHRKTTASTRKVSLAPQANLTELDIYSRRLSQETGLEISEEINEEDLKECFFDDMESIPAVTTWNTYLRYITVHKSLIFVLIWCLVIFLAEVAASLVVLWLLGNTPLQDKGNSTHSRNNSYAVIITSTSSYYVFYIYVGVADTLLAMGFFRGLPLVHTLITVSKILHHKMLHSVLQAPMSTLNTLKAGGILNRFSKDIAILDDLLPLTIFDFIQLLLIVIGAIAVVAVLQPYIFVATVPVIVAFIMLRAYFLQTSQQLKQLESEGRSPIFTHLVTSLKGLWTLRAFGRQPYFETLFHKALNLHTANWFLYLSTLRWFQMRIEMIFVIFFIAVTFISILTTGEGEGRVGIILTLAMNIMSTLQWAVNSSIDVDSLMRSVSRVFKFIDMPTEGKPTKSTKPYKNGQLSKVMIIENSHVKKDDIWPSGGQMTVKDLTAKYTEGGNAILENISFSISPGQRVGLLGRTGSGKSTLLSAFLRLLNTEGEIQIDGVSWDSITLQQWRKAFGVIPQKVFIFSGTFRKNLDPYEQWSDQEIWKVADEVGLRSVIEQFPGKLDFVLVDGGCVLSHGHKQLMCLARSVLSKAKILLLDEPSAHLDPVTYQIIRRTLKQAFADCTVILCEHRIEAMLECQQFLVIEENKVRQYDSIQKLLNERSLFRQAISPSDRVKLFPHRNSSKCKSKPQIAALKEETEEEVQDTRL
Text: as §1

[5] = target: T4, N1303K CFTR (Homo sapiens, UniProt P13569, N1303K); experiment: CFTR correction (immunoblotting), HEK-TREx, N1303K; details: 48 hours, IDOR-3 2 μM, IDOR-4 0.4 μM, TEZ 2 μM + ELX 0.4 μM
T4 construct: expressed in transfected cells; host or cells: T-REx HEK293
T4 sequence (P13569 whole entry N1303K): as the sequence (P13569 whole entry R560T) above, with T560R, N1303K counted along it
Text: as §1

[6] = target: T5, R347P CFTR (Homo sapiens, UniProt P13569, R347P); experiment: CFTR correction (immunoblotting), HEK-TREx, R347P; details: 48 hours, IDOR-3 2 μM, IDOR-4 0.4 μM, TEZ 2 μM + ELX 0.4 μM
T5 construct: expressed in transfected cells; host or cells: T-REx HEK293
T5 sequence (P13569 whole entry R347P): as the sequence (P13569 whole entry R560T) above, with R347P, T560R counted along it
Text: as §1

T1 sequence (P13569 whole entry): as the sequence (P13569 whole entry R560T) above, with T560R counted along it

## COc1cc(CCNC(=O)C2CC(=O)N(C)C(CC(C)C)C(=O)N3CCCCC3C(=O)NC(Cc3ccccc3)COc3ccc4ncc(F)cc4c3C(=O)N2)on1 (stereo not drawn) [IDOR-3]
[1]
  increase in WT-CFTR function: ~ 2 fold
[2]
  correction of R560T: highly effective
[3]
  correction of M1101K: highly effective
[4]
  increase in C-band expression: 9 fold
[5]
  correction of N1303K: only minor activity
[6]
  correction of R347P: highly effective
